Measurements taken from patent US20250313554A1, “PTPN2 INHIBITORS” (Ness Therapeutics, Inc., priority 2022, published 2025).
Where two headings read alike, the source gives them in different places.

Tests used:
GST-tagged PTPN2 protein = GST-tagged PTPN2 protein (Homo sapiens (Human), UniProt P17706); assay: Primary assay of PTPN2 enzymatic activity inhibition (DiFMUP fluorescence); assay type: biochemical; conditions: PTPN2 0.004 ng/μL, DiFUMP substrate 2 μM, 60 min at rt
Description: Compound activity was determined using GST-tagged PTPN2 protein (Cat #31592, ActiveMotif) (SEQ ID NO: 1) in an in vitro enzymatic reaction. The enzymatic reaction was carried out in assay buffer (50 mM HEPES Na salt pH 7.2-7.4, 2 mM EDTA, 100 mM NaCl, 52 ng/μL BSA, and 6 mM DTT). The compounds were dispensed on a 384 well Diamond Well Plate (Axigen, Cat #P-384-120SQ-C-S) using the Biomek FX liquid handling system at 100× solutions of compounds in DMSO. 2×PTPN2 (final concentration 0.004 ng/μL) was prepared in 1× Assay buffer and 25 μL of mixture per well was added into Reaction plate (Optiplate, black, Perkin Elmer, Cat #6007270). Add 25 μL of 1× buffer to Ctrl- (Substrate w/o PTPN2) wells followed by centrifugation at 100 g for 1 min. Next step the Compounds were added to Reaction plate using Biomek station via following steps: 3 μl of 100× compounds (in DMSO) were mixed with 27 μL of Assay Buffer, then 5 μL of this mixture was added to Reaction plate with 25 μL of PTPN2 Mix. Plates were centrifuged for 1 min at 100 g and incubated for another 10 min at rt. Finally, 20 μL of 2.5× Substrate (DiFUMP, Invitrogen™ Cat #D6567) mix was added into appropriate wells of Reaction plate to the final concentration of 2 μM, plate was centrifuged at 100 g for 1 min followed by incubation at rt for 60 min, and the Fluorescence Intensity was measured using a Microplate Reader (ClarioStar Plus, excitation 360 nm, emission 450 nm). The % inhibition was then used to calculate the Ki values. The Ki values are shown in Table A, wherein “A” corresponds to Ki<1.0 nm, “B” corresponds to 1.0 nm≤Ki<5.0 nm, “C” corresponds to 5.0 nm≤Ki<10.0 nm, “D” corresponds to 10.0 nm≤Ki<50.0 nm, and “E” corresponds to 50.0 nm≤Ki<100.0 nm, and “F” corresponds to 100.0 nm≤Ki.

[1] = tested on: B16F10 mouse melanoma cells; assay: Tumor cells B16F10 cellular growth IFNγ-induced inhibition assay (CellTiter-Glo); assay type: cell-based; conditions: for IC50: B16-F10, 72 h, 3 days of incubation; for inhibition at 100 µM: B16-F10, B16F10, 100 μM compound
Description: B16F10 mouse melanoma cells (ATCC Cat #CRL-6475) were seeded at a density of 500 cells per well in a 384-well clear bottom plate (Corning Cat #3712, Corning, N.Y.) in 40 μL total volume of DMEM+10% FBS (PanEco Cat #C420, Russia and Sigma Cat #F4135, St. Louis, MO). Cells were allowed to adhere overnight at 37° C., 5% CO2. On the following day, 250× solutions of compounds in DMSO (Sigma Cat #D2650) were prepared into Cmpnds plate (Diamond Well Plate, Axigen, Cat #P-384-120SQ-C-S) (final concentration of 1×) and DMSO only controls were included. Dilution Plate (Diamond Well Plate (Axigen, Cat #P-384-120SQ-C-S) was prepared by adding 49 μL of culture medium per well: half of the plate with culture medium only, half with culture medium+IFNγ (5 ng/ml). A 1 μL aliquot of 250× compounds (Cmpnds plate) was added to 49 μL of culture medium (Dilution plate), then a 10 μL aliquot of the mixture was transferred to Reaction plate with 40 μL of cells followed by centrifugation at 240 g for 1 min. After 3 days of incubation, 10 μL of CellTiter-Glo (Promega) was added to the cells, plates were centrifuged at 240 g for 1 min, and luminescence signal was measured. For each compound, the percent growth inhibition at every compound dose level was calculated relative to the “DMSO/with IFNγ” control and used to determine the IC50.

[2] = Pharmacokinetic (PK) study in mice, oral bioavailability; assay type: in vivo, Male CD-1 mice; conditions: 10 mg/kg PO vs 2 mg/kg IV, 10% Ethanol, 30% PEG-400, 60% Phosal-50PG, form Suspension
Description: Pharmacokinetic (PK) study in mice: Male CD-1 mice obtained from Charles River GmbH (Sulzfeld, Germany) with body weight ranging between 30 g to 40 g were used in the PK studies. Group of 12 mice were given a 2 mg/kg intravenous bolus (IV) dose of test article as a solution in 20% HP-beta-CD, and another group of 9 mice were given a 10 mg/kg oral (PO) dose of test article as a solution or suspension in [10% ethanol, 30% PEG-400 and 60% Phosal-50PG]. Blood samples (˜200 μL per time point) were collected twice from each animal—from orbital sinus and by cardiopuncture at 0.083, 0.25, 0.5, 1, 2, 4, 8 and 24 hours after IV administration, and at 0.5, 1, 2, 4, 8 and 24 hours after PO administration, 3 mice/time point. Blood samples were collected in tubes with Na-EDTA 0.5 M solution (1:10) and centrifuged for 10 min at 10,000 rpm at 2 to 8° C. to harvest plasma. Plasma samples were stored at −80° C. until LC/MS/MS analysis. Concentration in each plasma sample was determined by a non-validated LC/MS/MS. Data is acquired using multiple reaction monitoring (MRM) with specific transitions monitored for each compound. Pharmacokinetic Analysis: PK parameters were calculated by non-compartmental methods as described in Gibaldi and Perrier (Gibaldi and Perrier, 1982) using Phoenix® WinNonlin® version 6.3 (Certara L.P.). Following PO administration, percent bioavailability (Fabs) was determined by dividing the dose normalized mean area under the plasma concentration-time curve, extrapolated to the last time point (AUClast) obtained following PO dose by the mean dose normalized AUC of the animals dosed by IV injection. All PK parameters are presented as mean±standard deviation (SD). PK studies were conducted in mice for exemplary compounds of Formula (I). The percent bioavailability (Fabs) values determined are listed in Table C for certain compounds, together with the dosage, vehicle and form used in the studies.

Sequence of GST-tagged PTPN2 protein (P17706 whole entry): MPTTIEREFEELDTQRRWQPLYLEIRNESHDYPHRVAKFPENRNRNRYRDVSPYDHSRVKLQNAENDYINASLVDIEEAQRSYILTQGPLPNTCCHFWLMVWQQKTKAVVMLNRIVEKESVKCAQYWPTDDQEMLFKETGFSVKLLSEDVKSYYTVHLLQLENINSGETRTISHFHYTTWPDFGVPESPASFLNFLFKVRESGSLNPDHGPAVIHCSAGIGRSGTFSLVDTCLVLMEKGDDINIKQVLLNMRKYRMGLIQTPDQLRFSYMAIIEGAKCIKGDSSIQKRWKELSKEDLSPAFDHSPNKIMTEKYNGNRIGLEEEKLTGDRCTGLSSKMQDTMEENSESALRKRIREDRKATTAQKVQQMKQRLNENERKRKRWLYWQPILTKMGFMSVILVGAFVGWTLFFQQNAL

Cc1cc(O)nc(Nc2cc(O)c(N3CC(=O)NS3(=O)=O)c(F)c2)n1 [Compound 10, 5-[2-fluoro-6-hydroxy-4-[(4-hydroxy-6-methyl-pyrimidin-2-yl)amino]phenyl]-1,1-dioxo-1,2,5-thiadiazolidin-3-one]
Ki (GST-tagged PTPN2 protein): 1 to 5 nM | IC50 ([1]; B16F10, no IFNγ, read-out: IC50 no IFNγ): > 100 µM | IC50 ([1]; B16F10, with IFNγ, read-out: IC50 + IFNγ): < 5 µM | inhibition at 100 µM ([1]; no IFNγ, read-out: % Growth Inhibition at 100 μM no IFNγ): 10 to 50% | inhibition at 100 µM ([1]; with IFNγ, read-out: % Growth Inhibition at 100 μM + IFNγ): 75 to 100% | Fabs, % [2]: 2.7%
